For experiment [1], the system named is P. aeruginosa PAO1. Nature of the experiment: Minimum Inhibitory Concentration (MIC). It is filed as cell-based, Pseudomonas aeruginosa. The following applies: alone, MHB-II broth. How it is done:
(§1) Pure stock cultures were maintained at −80° C. in 30% (v/v) frozen glycerol solution. Starter cultures were prepared by streaking frozen cultures onto LB agar (LB broth: tryptone 10 g/L, yeast extract 5 g/L and NaCl 5 g/L, supplemented with 1.5 w/v % agar (Fisher Scientific, Canada)). After overnight incubation at 37° C., a single colony was inoculated into 10 mL of LB broth and the culture was incubated at 37° C. on an orbital shaker at 150 rpm for time lengths specific to each experiment. LB broth was used for bacterial culture in all experiments unless otherwise specified.
(§2) Minimum Inhibitory Concentration (MIC) was determined by preparing two-fold serial dilutions of each cPACs fraction and antibiotic in Mueller Hinton broth adjusted with Ca^2+ and Mg^2+ (MHB-II, Oxoid, Fisher Scientific, Canada). […] Bacterial growth was assessed by (i) monitoring the optical density of the cell suspension in each well at 600 nm (OD600 nm), and (ii) the resazurin microtitre plate assay. In the resazurin microtitre plate assay, each well of a microtitre plate was supplemented with 20 μM resazurin, incubated in dark for 20 min at room temperature, followed by fluorescence measurements at ex/em 570/590 nm using a TECAN Infinite M200 Pro microplate reader (Tecan Group Ltd., Switzerland). […]

Experiment [2] deals with E. coli CFT073. Nature of the experiment: Minimum Inhibitory Concentration (MIC). It is filed as cell-based, Escherichia coli. Particulars: alone, MHB-II broth. The method, then: as §1, §2

One substance from US20180360898A1, “USE OF CRANBERRY DERIVED PHENOLIC COMPOUNDS AS ANTIBIOTIC SYNERGIZING AGENT AGAINST PATHOGENIC BACTERIA” (THE ROYAL INSTITUTION FOR THE ADVANCEMENT OF …, priority 2015, published 2018) can be followed below.

A word on the MIC: it is the smallest concentration in the dilution series that meets the test's criterion for growth inhibition. High values mean weaker potency, low ones greater potency.

For the substance gentamicin, the MIC in experiment [1] and in experiment [2] was 2 µg/mL throughout.
